The results in this text go back to US20240150377A1, “MODULATORS OF CYSTIC FIBROSIS TRANSMEMBRANE CONDUCTANCE REGULATOR” (VERTEX PHARMACEUTICALS INCORPORATED, priority 2020, published 2024).

In this test the target is T1, CFTR (Homo sapiens, UniProt P13569, DEL508-508).
T1 construct: endogenous in cells; host or cells: primary human bronchial epithelial cells from CF subjects (F508del/MF-HBE), differentiated at air-liquid interface
The test can be described thus: HBE assay: Ussing chamber assay of CFTR-mediated short-circuit currents. In kind it is cell-based. Particulars: for EC50: read-out: HBE EC50. The essentials:
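CFTR-mediated Isc (μA/cm²) equals the peak response to apical 20 μM forskolin minus the residual after a 20 μM each BPO/GlyH-101/CFTR inhibitor 172 cocktail, recorded in Ussing chambers at Vhold 0 mV, 37 °C, pH 7.4, with 30 μM apical amiloride. Cells were F508del/MF HBE cultures preincubated 18-24 h with corrector (concentration range or 10 μM) plus 1 μM ivacaftor in 20% human serum.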

The mark [1] stands for this setting: Table 13, read-out: HBE Activity at 10 μM (%).
The mark [2] stands for this setting: Table 10, read-out: HBE Max activity (%).
The mark [3] stands for this setting: HBE assay, read-out: HBE Max activity (%).
Setting [4] is: Table 13, read-out: HBE Max Activity (%).
Setting [5] is: Table 12, read-out: HBE Max Activity (%).
[6] abbreviates: Table 11, read-out: HBE Max Activity (%).
Setting [7] is: Table 11, read-out: HBE Activity at 10 μM (%).
Setting [8] is: Table 12, read-out: HBE Activity at 10 μM (%).
[9] abbreviates: Table 10, read-out: HBE activity at 10 (μM) (%).

Read-outs that look alike come from different tables or passages of the source.

T1 sequence (P13569 with tags, fused parts or gaps DEL508-508): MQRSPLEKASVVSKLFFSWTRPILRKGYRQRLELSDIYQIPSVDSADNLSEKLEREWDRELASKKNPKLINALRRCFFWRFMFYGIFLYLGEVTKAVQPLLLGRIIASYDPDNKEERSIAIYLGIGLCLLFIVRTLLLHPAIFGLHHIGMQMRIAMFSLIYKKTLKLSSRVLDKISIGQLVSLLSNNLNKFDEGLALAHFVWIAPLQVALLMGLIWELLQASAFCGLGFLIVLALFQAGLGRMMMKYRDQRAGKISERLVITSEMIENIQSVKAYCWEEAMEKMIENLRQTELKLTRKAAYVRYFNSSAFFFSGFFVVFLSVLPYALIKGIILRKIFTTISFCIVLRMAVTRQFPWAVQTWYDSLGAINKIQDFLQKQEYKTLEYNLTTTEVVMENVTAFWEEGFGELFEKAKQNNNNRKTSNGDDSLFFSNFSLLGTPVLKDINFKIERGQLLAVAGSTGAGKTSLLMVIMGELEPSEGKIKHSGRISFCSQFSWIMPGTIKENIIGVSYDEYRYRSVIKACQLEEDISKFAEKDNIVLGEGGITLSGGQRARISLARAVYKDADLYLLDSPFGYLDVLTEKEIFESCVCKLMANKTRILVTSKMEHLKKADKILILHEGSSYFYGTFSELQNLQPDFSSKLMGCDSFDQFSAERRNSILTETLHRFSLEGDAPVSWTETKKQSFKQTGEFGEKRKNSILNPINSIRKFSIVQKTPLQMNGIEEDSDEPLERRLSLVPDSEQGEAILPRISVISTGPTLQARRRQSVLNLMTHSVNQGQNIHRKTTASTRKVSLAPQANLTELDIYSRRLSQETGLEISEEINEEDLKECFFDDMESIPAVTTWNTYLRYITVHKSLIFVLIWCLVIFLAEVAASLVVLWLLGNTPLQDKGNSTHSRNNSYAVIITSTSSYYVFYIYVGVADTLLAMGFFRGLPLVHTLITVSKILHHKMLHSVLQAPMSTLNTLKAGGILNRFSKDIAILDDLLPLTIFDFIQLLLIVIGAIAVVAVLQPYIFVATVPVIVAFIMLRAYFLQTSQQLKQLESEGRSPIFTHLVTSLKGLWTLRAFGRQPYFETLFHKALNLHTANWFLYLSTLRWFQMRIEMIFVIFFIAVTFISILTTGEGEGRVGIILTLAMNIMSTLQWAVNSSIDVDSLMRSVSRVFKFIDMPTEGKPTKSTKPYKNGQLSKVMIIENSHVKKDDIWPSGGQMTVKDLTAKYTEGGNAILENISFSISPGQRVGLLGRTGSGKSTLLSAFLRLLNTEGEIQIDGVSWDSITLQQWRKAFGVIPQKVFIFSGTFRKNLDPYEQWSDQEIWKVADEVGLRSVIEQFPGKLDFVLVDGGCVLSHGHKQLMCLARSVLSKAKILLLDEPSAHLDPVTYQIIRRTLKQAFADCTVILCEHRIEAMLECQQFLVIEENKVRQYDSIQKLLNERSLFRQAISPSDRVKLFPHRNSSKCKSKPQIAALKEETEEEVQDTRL

For `Cc1cccc(C)c1-c1cc2nc(n1)NS(=O)(=O)c1cccc(c1)C(=O)N(CC1CC3(C1)CC(NC(=O)OC1CC1)C3)[C@H](CC(C)(C)C)CO2` (stereo partly shown) [Compound 1002], the activation at 10 µM under setting [1] is more than 600%.
As for `Cc1cccc(C)c1-c1cc2nc(n1)NS(=O)(=O)c1cccc(c1)C(=O)N(CC(=O)N1CCC[C@@H](C)C1)[C@H](CC(C)(C)C)CO2` [Compound 184], under setting [1], the activation at 10 µM is more than 600%.
A word on the EC50: it is the midpoint of the concentration-response curve. In the case of `Cc1cccc(C)c1-c1cc2nc(n1)NS(=O)(=O)c1cccc(c1)C(=O)N(Cc1ccccc1-c1c(C)n[nH]c1C)[C@H](CC(C)(C)C)CO2` [Compound 306], the EC50 (Table 10) was less than 1000 nM. In addition, the Emax under setting [2] was more than 60%.
For the compound `Cc1cccc(C)c1-c1cc2nc(n1)NS(=O)(=O)c1cccc(c1)C(=O)N(Cc1ncc(OC(C)C)cc1F)[C@H](CC1CC1)CO2` [Compound 1467], the EC50 (HBE assay) was in the range of 1000 to 3000 nM. Under setting [3], the Emax is more than 60%.
Turning to `Cc1cccc(C)c1-c1cc2nc(n1)NS(=O)(=O)c1cccc(c1)C(=O)N(Cc1ncc(OC3CCC3)cc1Cl)[C@H](CC(C)(C)C)CO2` [Compound 690], for the setting “Table 13”, the 50% effective concentration (EC50) is less than 1000 nM. In addition, the Emax under setting [4] was more than 60%.
Turning to `Cc1cccc(C)c1-c1cc2nc(n1)NS(=O)(=O)c1cccc(c1)C(=O)N(Cc1ccc(C(C)(C)C)cn1)[C@H](CC(C)(C)C)CO2` [Compound 496], the half-maximal effective concentration (EC50) (Table 10) was less than 1000 nM. For the same compound, the Emax under setting [2] is more than 60%.
Regarding `Cc1cccc(C)c1-c1cc2nc(n1)NS(=O)(=O)c1cccc(c1)C(=O)N(Cc1ncc(OCC(C)(C)C)cn1)[C@H](CC(C)(C)C)CO2` [Compound 567], the EC50 (Table 12) is less than 1000 nM. For the same compound, under setting [5], the Emax was more than 60%.
Regarding `Cc1cccc(C)c1-c1cc2nc(n1)NS(=O)(=O)c1cccc(c1)C(=O)N(CC1CN(C(=O)C(C)(C)C)CCO1)[C@H](CC(C)(C)C)CO2` (stereo partly shown) [Compound 714], for the setting “Table 11”, the concentration for a half-maximal effect (EC50) was less than 1000 nM. Under setting [6], the Emax is more than 60%.
In the case of `Cc1cccc(C)c1-c1cc2nc(n1)NS(=O)(=O)c1cccc(c1)C(=O)N(Cc1cccc(N3C4CCC3CC4)n1)[C@H](CC(C)(C)C)CO2` [Compound 1398], the EC50 (HBE assay) is less than 1000 nM. In addition, the Emax under setting [3] is more than 60%.
As for `Cc1cccc(C)c1-c1cc2nc(n1)NS(=O)(=O)c1cccc(c1)C(=O)N(Cc1cc3ccccn3n1)[C@H](CC(C)(C)C)CO2` [Compound 743], the activation at 10 µM under setting [7] is less than 30%.
Regarding `Cc1cccc(C)c1-c1cc2nc(n1)NS(=O)(=O)c1cccc(c1)C(=O)N(Cc1ccc3c(n1)N1CCOCC1C(C)C3)[C@H](CC(C)(C)C)CO2` (stereo partly shown) [Compound 1154], the EC50 (Table 13) is less than 1000 nM. Further, the Emax under setting [4] was more than 60%.
Turning to `Cc1cccc(C)c1-c1cc2nc(n1)NS(=O)(=O)c1cccc(c1)C(=O)N(Cc1ccc3c(n1)C(C)CCO3)C(CC(C)(C)C)CO2` (stereo not shown) [Compound 794], the Emax under setting [2] was more than 60%.
As to `Cc1cccc(C)c1-c1cc2nc(n1)NS(=O)(=O)c1cccc(c1)C(=O)N(Cc1cncc(N(C)C34CC(C3)C4)n1)[C@H](CC(C)(C)C)CO2` [Compound 443], the 50% effective concentration (EC50) (Table 12) is less than 1000 nM. Under setting [5], the Emax is more than 60%.
For `Cc1cccc(C)c1-c1cc2nc(n1)NS(=O)(=O)c1cccc(c1)C(=O)N(Cc1cc(C(C)(C)C)ccn1)[C@H](CC(C)(C)C)CO2` [Compound 886], where the note is “Table 11”, the EC50 was less than 1000 nM. Also, under setting [6], the Emax is more than 60%.
As to `Cc1cccc(C)c1-c1cc2nc(n1)NS(=O)(=O)c1cccc(c1)C(=O)N(Cc1ccc(OC(C)C)nn1)[C@H](CC(C)(C)C)CO2` [Compound 234], for the setting “Table 13”, the EC50 was less than 1000 nM. Moreover, under setting [4], the Emax is more than 60%.
Take `Cc1cccc(C)c1-c1cc2nc(n1)NS(=O)(=O)c1cccc(c1)C(=O)N(CC1CCC(N3C[C@@H](C)O[C@@H](C)C3)CC1)[C@H](CC(C)(C)C)CO2` (stereo partly shown) [Compound 913]: where the note is “Table 10”, the EC50 was less than 1000 nM. For the same compound, the Emax under setting [2] was more than 60%.
Regarding `Cc1cccc(C)c1-c1cc2nc(n1)NS(=O)(=O)c1cccc(c1)C(=O)N(Cc1ncc(OCC3CC3)cn1)[C@H](CC(C)(C)C)CO2` [Compound 1390], under “HBE assay”, the EC50 is less than 1000 nM. Further, the Emax under setting [3] is more than 60%.
For the compound `Cc1cccc(C)c1-c1cc2nc(n1)NS(=O)(=O)c1cccc(c1)C(=O)N(Cc1cncc(C(C)C)n1)[C@H](CC(C)(C)C)CO2` [Compound 892], the EC50 (Table 11) is less than 1000 nM. Besides, under setting [6], the Emax is more than 60%.
As for `Cc1cccc(C)c1-c1cc2nc(n1)NS(=O)(=O)c1cccc(c1)C(=O)N(Cc1nc3ccccc3n1C)[C@H](CC(C)(C)C)CO2` [Compound 268], the concentration giving a half-maximal response (EC50) (Table 12) was less than 1000 nM. In addition, under setting [5], the Emax was more than 60%.
With `Cc1cccc(C)c1-c1cc2nc(n1)NS(=O)(=O)c1cccc(c1)C(=O)N(Cc1ncc(C3CCOCC3)cc1F)[C@H](CC(C)(C)C)CO2` [Compound 521], the activation at 10 µM under setting [8] is more than 600%.
With `Cc1cccc(C)c1-c1cc2nc(n1)NS(=O)(=O)c1cccc(c1)C(=O)N(Cc1ncc(N3CCOC4(CCC4)C3)cn1)[C@H](CC(C)(C)C)CO2` [Compound 1146], the EC50 (Table 13) was less than 1000 nM. Also, under setting [4], the Emax is more than 60%.
In the case of `Cc1cccc(C)c1-c1cc2nc(n1)NS(=O)(=O)c1cccc(c1)C(=O)N(Cc1ncc(N3CCC(C)(O)C3)cn1)[C@H](CC(C)(C)C)CO2` (stereo partly shown) [Compound 553], the activation at 10 µM under setting [8] is more than 600%.
On to `Cc1cccc(C)c1-c1cc2nc(n1)NS(=O)(=O)c1cccc(c1)C(=O)N(Cc1cncc(N(C)C)n1)[C@H](CC(C)(C)C)CO2` [Compound 885], for which, for the setting “Table 11”, the EC50 was less than 1000 nM. The Emax under setting [6] was more than 60%.
`Cc1cccc(C)c1-c1cc2nc(n1)NS(=O)(=O)c1cccc(c1)C(=O)N(Cc1cccc(CCC(C)(C)C)n1)[C@H](CC(C)(C)C)CO2` [Compound 582]: the EC50 (Table 12) was less than 1000 nM. Moreover, the Emax under setting [5] was more than 60%.
`Cc1cccc(C)c1-c1cc2nc(n1)NS(=O)(=O)c1cccc(c1)C(=O)N(Cc1ncc(OC(C)C)c(C)n1)[C@H](CC(C)(C)C)CO2` [Compound 610]: the EC50 (Table 11) was less than 1000 nM. Also, the Emax under setting [6] is more than 60%.
As for `Cc1cccc(C)c1-c1cc2nc(n1)NS(=O)(=O)c1cccc(c1)C(=O)N(Cc1ccc(-c3cnc(N)nc3)cc1)[C@H](CC(C)(C)C)CO2` [Compound 782], under “Table 10”, the EC50 was less than 1000 nM. Also, the Emax under setting [2] was more than 60%.
As to `Cc1cccc(C)c1-c1cc2nc(n1)NS(=O)(=O)c1cccc(c1)C(=O)N(Cc1ccnc(N3CCC[C@H]3C(C)C)n1)[C@H](CC(C)(C)C)CO2` (stereo in doubt) [Compound 1476], the EC50 (HBE assay) was less than 1000 nM.
On to `Cc1cccc(C)c1-c1cc2nc(n1)NS(=O)(=O)c1cccc(c1)C(=O)N(Cc1ccc(C3CC(C)(C)C3)cn1)[C@H](CC(C)(C)C)CO2` [Compound 159], for which, where the note is “Table 13”, the EC50 was less than 1000 nM. In addition, the Emax under setting [4] was more than 60%.
For `Cc1cccc(C)c1-c1cc2nc(n1)NS(=O)(=O)c1cccc(c1)C(=O)N(Cc1cccc(C3=CCC(C)(C)CC3)n1)[C@H](CC(C)(C)C)CO2` [Compound 734], under setting [7], the activation at 10 µM was more than 60%.
`Cc1cccc(C)c1-c1cc2nc(n1)NS(=O)(=O)c1cccc(c1)C1Oc3cnc4ccccc4c3CN1[C@H](CC(C)(C)C)CO2` (stereo partly shown) [Compound 752]: under setting [9], the activation at 10 µM was less than 300%.
As to `Cc1cnc(CN2C(=O)c3cccc(c3)S(=O)(=O)Nc3nc(cc(-c4c(C)cccc4C)n3)OC[C@H]2CC(C)(C)C)nc1N(C)C1CCCC1` [Compound 329], under setting [8], the activation at 10 µM was more than 600%.
As for `Cc1cccc(C)c1-c1cc2nc(n1)NS(=O)(=O)c1cccc(c1)C(=O)N(CC1CC3(C1)CC(N(C)C)C3)[C@H](CC(C)(C)C)CO2` (stereo partly shown) [Compound 1000], the activation at 10 µM under setting [1] was more than 600%.
For `Cc1cccc(C)c1-c1cc2nc(n1)NS(=O)(=O)c1cccc(c1)C(=O)N(CC(=O)N1CCC[C@@H](c3ccccc3)C1)[C@H](CC(C)(C)C)CO2` [Compound 180], under setting [1], the activation at 10 µM is more than 600%.
`Cc1cccc(C)c1-c1cc2nc(n1)NS(=O)(=O)c1cccc(c1)C(=O)N(Cc1cnc(C3CCCCC3)cn1)[C@H](CC(C)(C)C)CO2` [Compound 891]: the EC50 (Table 11) was in the range of 1000 to 3000 nM. In addition, under setting [6], the Emax is more than 60%.
Turning to `CCO[C@H]1C[C@@H](Oc2cnc(CN3C(=O)c4cccc(c4)S(=O)(=O)Nc4nc(cc(-c5c(C)cccc5C)n4)OC[C@H]3CC(C)C)nc2)C1` [Compound 1461], the EC50 (HBE assay) is less than 1000 nM. For the same compound, the Emax under setting [3] is more than 60%.
For the compound `COc1c(F)cc(CN2C(=O)c3cccc(c3)S(=O)(=O)Nc3nc(cc(-c4c(C)cccc4C)n3)OC[C@H]2CC(C)(C)C)cc1F` [Compound 769], under setting [9], the activation at 10 µM is more than 60%.
For the compound `COCCNc1cccc(CN2C(=O)c3cccc(c3)S(=O)(=O)Nc3nc(cc(-c4c(C)cccc4C)n3)OC[C@H]2CC(C)(C)C)n1` [Compound 475], the Emax under setting [2] was more than 60%.
Take `Cc1cccc(C)c1-c1cc2nc(n1)NS(=O)(=O)c1cccc(c1)C(=O)N(CC(=O)NC1CCOCC1)[C@H](CC(C)(C)C)CO2` [Compound 189]: the activation at 10 µM under setting [1] was more than 600%.
On to `COCCN(c1cncc(CN2C(=O)c3cccc(c3)S(=O)(=O)Nc3nc(cc(-c4c(C)cccc4C)n3)OC[C@H]2CC(C)(C)C)n1)C1CCC1` [Compound 1417], for which, under “HBE assay”, the EC50 was less than 1000 nM. Also, the Emax under setting [3] was more than 60%.
Consider `COC[C@@H](C)N(C)c1ccnc(CN2C(=O)c3cccc(c3)S(=O)(=O)Nc3nc(cc(-c4c(C)cccc4C)n3)OC[C@H]2CC(C)(C)C)n1` [Compound 446], for which the EC50 (Table 12) is less than 1000 nM. Moreover, the Emax under setting [5] was more than 60%.
On to `CCN(C)c1ccnc(CN2C(=O)c3cccc(c3)S(=O)(=O)Nc3nc(cc(-c4c(C)cccc4C)n3)OC[C@H]2CC(C)(C)C)n1` [Compound 1357], for which the EC50 (HBE assay) is less than 1000 nM. Further, the Emax under setting [3] is more than 60%.
